This note sets out measurements from patent publication US4853209A, “Bone marrow suppressing agents” (The Dow Chemical Company, priority 1987, dated 1989).

Read-outs that look alike come from different tables or passages of the source.

Data set [1] in a line: Two hour rat biolocalization of radionuclide compositions (Tables I, II, III). The data set is classed as in vivo. To be noted: 2 h, average of five rats; for Bone/Blood Ratio / Bone/Muscle Ratio: from percent dose per gram; for % Dose in Blood / % Dose in Liver / % Dose in Skeleton / % Dose in Urine / % Dose in Muscle: tail vein. Here is the method: A vial is used to prepare the sample for injection. The vial contains 210 mg EDTMP and 140 mg of NaOH such that addition of 6 ml of a 3×10^-4 M Ho-166 solution in 0.1M HCl gave a final pH in the range of 7-8, forming the Ho-166 EDTMP composition. After checking the pH, samples were drawn for injection into Sprague-Dawley rats. Rats were injected with 100 microliters of the solution via a tail vein. Two hours after the injection the rats were killed by cervical dislocation and dissected. The amount of radiation in each tissue was obtained by counting in a NaI well counter and comparing to standards.
The biolocalization of compositions prepared as described in Examples 7, 8, 9 and 10 was determined in rats.
The numbers given in Table I represent the average of the results of five rats per Example.
The biolocalization of the composition prepared as described in Example 12 was determined in rats.
The numbers given in Table II represent the average of the results of testing in three rats.
The biolocalization of compositions prepared as described in Examples 14 and 15 was determined in rats.
The numbers given in Table III represent the average of the results of five rats per Example.

For data set [2] the following is noted: rat. As to the method: Quantitative biodistributions in rats are obtained by injecting 50-100 microliters (μl) of the radionuclide composition into the tail vein of unanesthetized laboratory rats. After a given period of time, the rats are sacrificed by cervical dislocation and various organs and tissues removed. The tissue samples are then rinsed, blotted dry and weighed. The radioactivity in the tissue samples are measured using a NaI scintillation counter in order to determine the biolocalization of the radionuclide.
The numbers given for each Example, with respect to Tables I, II and III represent the percentage of the administered dose which localized in the indicated tissue. The ratio of radioactivity observed in bone relative to other organs was calculated based on the percent dose per gram in the bone and in the particular organ.
A series of rats was injected with the composition of Example 7 and sacrificed in groups of five at various intervals.

The conditions of data set [3]: rabbit, three hours, averaged for 5 rabbits. Here is the method:
The composition of Example 7 was also evaluated in rabbits. The rabbits were injected with 100-250 microliters of the composition via a cannula placed in the marginal ear vein.
Three hours after injection, a blood sample was taken by cardiac puncture and the animal was then sacrificed by injection of a commercial euthanasia solution.

Data set [4] concerns bone marrow. The conditions noted are these: normal beagles, various dose levels, weekly blood samples. Here is the method:
A series of normal beagles was treated with various dose levels of the composition of Example 7. Blood samples were obtained weekly with white blood cell and platelet counts taken to monitor for signs of bone marrow suppression.

Data set [5] has as its system bone marrow. To be noted: mouse about 20 g, 198 μCi, six days. Here is the method:
A mouse weighing about 20 g is injected with 198 μCi of a Ho-166 EDTMP composition. After six days, the animal is sacrificed and both femurs and the sternum removed. The same bones are also taken from a nontreated animal (control). The tissues are fixed using standard histochemical procedures and decalcified using formic acid. The tissues are embedded in paraffin, three micron sections cut, placed on glass slides, and stained with hematoxilyn and eosin.

Turning to `O=P(O)(O)CN(CCN(CP(=O)(O)O)CP(=O)(O)O)CP(=O)(O)O.[153Sm]` [Example 7], in data set [1], the “Bone/Blood Ratio” value is 1800, the “Bone/Muscle Ratio” value worked out at 1500, the “% Dose in Blood” value turned out to be 0.032 % Dose and the “% Dose in Liver” value stood at 0.25 % Dose. In data set [1], the “% Dose in Skeleton” value is on record as 58 % Dose and the “% Dose in Urine” value is given as 49 % Dose. In data set [2], the blood clearance entry is on record as “rapid blood clearance” and the uptake in bone entry is reported as “rapid uptake in bone”. Moreover, in data set [2] (1 Hr), the Bone/Blood was 120; the Bone/Muscle is recorded as 300; the “Percent of the Administered Dose, Blood” value is 0.5% of the Administered Dose; the “Percent of the Administered Dose, Kidneys” value (shortened to “Percent … Kidneys”) was 0.47% of the Administered Dose. Also, in data set [2] (1 Hr), the “Percent of the Administered Dose, Liver” value is 0.32% of the Administered Dose; the “Percent of the Administered Dose, Skeleton” value (from here on “Percent … Skeleton”) was 58% of the Administered Dose; the “Percent of the Administered Dose, Urine” value is recorded as 47% of the Administered Dose. Also, in data set [2] (2 Hrs), the Bone/Blood is listed as 1800; the Bone/Muscle was determined as 1500; the “Percent of the Administered Dose, Blood” value is recorded as 0.03% of the Administered Dose; the “Percent … Kidneys” value was 0.25% of the Administered Dose. Moreover, in data set [2] (2 Hrs), the “Percent of the Administered Dose, Liver” value is 0.25% of the Administered Dose; the “Percent … Skeleton” value was 58% of the Administered Dose; the “Percent of the Administered Dose, Urine” value is reported as 49% of the Administered Dose. Also, in data set [2] (5 Hrs), the Bone/Blood amounted to 4200; the Bone/Muscle worked out at 3600; the “Percent of the Administered Dose, Blood” value was 0.008% of the Administered Dose; the “Percent … Kidneys” value is 0.36% of the Administered Dose. In data set [2] (5 Hrs), the “Percent of the Administered Dose, Liver” value is on record as 0.37% of the Administered Dose; the “Percent … Skeleton” value is 59% of the Administered Dose; the “Percent of the Administered Dose, Urine” value is on record as 46% of the Administered Dose. In data set [2] (15 Min), the Bone/Blood worked out at 7; the Bone/Muscle is reported as 30; the “Percent of the Administered Dose, Blood” value is recorded as 5.9% of the Administered Dose; the “Percent … Kidneys” value was 1.745% of the Administered Dose. In addition, in data set [2] (15 Min), the “Percent of the Administered Dose, Liver” value was 0.96% of the Administered Dose; the “Percent … Skeleton” value was 48% of the Administered Dose; the “Percent of the Administered Dose, Urine” value is 28% of the Administered Dose. In data set [2] (24 Hrs), the Bone/Blood is recorded as 6700; the Bone/Muscle is on record as 2400; the “Percent of the Administered Dose, Blood” value was 0.007% of the Administered Dose; the “Percent … Kidneys” value is listed as 0.25% of the Administered Dose. In addition, in data set [2] (24 Hrs), the “Percent of the Administered Dose, Liver” value is 0.35% of the Administered Dose; the “Percent … Skeleton” value was 52% of the Administered Dose; the “Percent of the Administered Dose, Urine” value was 55% of the Administered Dose. Further, in data set [2] (30 Min), the Bone/Blood was 20; the Bone/Muscle was 70; the “Percent of the Administered Dose, Blood” value is on record as 2.3% of the Administered Dose; the “Percent … Kidneys” value is 0.805% of the Administered Dose. In addition, in data set [2] (30 Min), the “Percent of the Administered Dose, Liver” value is reported as 0.53% of the Administered Dose; the “Percent … Skeleton” value is given as 53% of the Administered Dose; the “Percent of the Administered Dose, Urine” value is on record as 42% of the Administered Dose. Further, in data set [2] (48 Hrs), the Bone/Blood was 8200; the Bone/Muscle worked out at 2800; the “Percent of the Administered Dose, Blood” value was 0.006% of the Administered Dose; the “Percent … Kidneys” value is recorded as 0.29% of the Administered Dose. In addition, in data set [2] (48 Hrs), the “Percent of the Administered Dose, Liver” value is on record as 0.46% of the Administered Dose; the “Percent … Skeleton” value was 60% of the Administered Dose; the “Percent of the Administered Dose, Urine” value is 50% of the Administered Dose. Also, in data set [2] (72 Hrs), the Bone/Blood is 7800; the Bone/Muscle is reported as 3400; the “Percent of the Administered Dose, Blood” value is reported as 0.006% of the Administered Dose; the “Percent … Kidneys” value is 0.22% of the Administered Dose. Moreover, in data set [2] (72 Hrs), the “Percent of the Administered Dose, Liver” value is on record as 0.49% of the Administered Dose; the “Percent … Skeleton” value was 57% of the Administered Dose; the “Percent of the Administered Dose, Urine” value was 53% of the Administered Dose. The “clearance of the radioactivity from the skeletal system” value in data set [2] (throughout the course of the experiment) was “no significant clearance of the radioactivity from the skeletal system”. Moreover, in data set [3] (marginal ear vein), the “% Dose in Blood” value is 0.12 % Dose, the “% Dose in Liver” value is recorded as 0.95 % Dose and the “% Dose in Skeleton” value is given as 66 % Dose. Further, the “% Dose in Urine” value in data set [3] (marginal ear vein, 180 min) came to 34 % Dose. For the same molecule, in data set [3], the “Bone/Blood Ratio” value worked out at 900 and the “Bone/Muscle Ratio” value was 1200. Besides, in the data set on bone marrow [4], the platelet count result was “dose dependent reduction” and the “white blood cell count” value is reported as “dose dependent reduction”.

On to `O=P(O)(O)CN(CCN(CP(=O)(O)O)CP(=O)(O)O)CCN(CP(=O)(O)O)CP(=O)(O)O.[153Sm]` [Example 8], for which, in data set [1], the “Bone/Blood Ratio” value was found to be 224, the “Bone/Muscle Ratio” value is recorded as 220, the “% Dose in Blood” value is on record as 0.16 % Dose and the “% Dose in Liver” value is 0.27 % Dose. In data set [1], the “% Dose in Skeleton” value stood at 30 % Dose and the “% Dose in Urine” value worked out at 74 % Dose.

Turning to `O=P(O)(O)CN(CCO)CCN(CP(=O)(O)O)CP(=O)(O)O.[153Sm]` [Example 9], in data set [1], the “Bone/Blood Ratio” value was 1300, the “Bone/Muscle Ratio” value turned out to be 1300, the “% Dose in Blood” value is given as 0.035 % Dose and the “% Dose in Liver” value is 0.45 % Dose. In data set [1], the “% Dose in Skeleton” value came to 57 % Dose and the “% Dose in Urine” value was 50 % Dose.

With `O=P(O)(O)CN(CCN(CCN(CP(=O)(O)O)CP(=O)(O)O)CCN(CP(=O)(O)O)CP(=O)(O)O)CP(=O)(O)O.[153Sm]` [Example 10], in data set [1], the “Bone/Blood Ratio” value came out at 80, the “Bone/Muscle Ratio” value is given as 410, the “% Dose in Blood” value was determined as 0.25 % Dose and the “% Dose in Liver” value was 0.18 % Dose. Besides, in data set [1], the “% Dose in Skeleton” value came out at 28 % Dose and the “% Dose in Urine” value is recorded as 65 % Dose.

Take `O=P(O)(O)CN(CCN(CP(=O)(O)O)CP(=O)(O)O)CP(=O)(O)O.[166Ho]` [Example 12]: the “suppression of the marrow” value in the data set with bone marrow [5] was “suppression of the marrow”. Besides, in the data set on bone marrow [5] (vs nontreated control), the “density of hemapoetic stem cells in marrow” value is on record as “significantly lower density of hemapoetic stem cells” and the “number of red blood cells in marrow” value is listed as “significantly higher number of red blood cells”.

In the case of `O=P(O)(O)CN(CCN(CP(=O)(O)O)CP(=O)(O)O)CP(=O)(O)O.[159Gd]` [Example 14], in data set [1], the “Bone/Blood Ratio” value stood at 305, the “Bone/Muscle Ratio” value is listed as 577, the “% Dose in Blood” value worked out at 0.15 % Dose and the “% Dose in Liver” value amounted to 0.25 % Dose. Moreover, in data set [1], the “% Dose in Muscle” value amounted to 0.56 % Dose and the “% Dose in Skeleton” value is given as 57 % Dose.

In the case of `O=P(O)(O)CN(CCO)CCN(CP(=O)(O)O)CP(=O)(O)O.[159Gd]` [Example 15], in data set [1], the “Bone/Blood Ratio” value amounted to 335, the “Bone/Muscle Ratio” value came to 548, the “% Dose in Blood” value is on record as 0.14 % Dose and the “% Dose in Liver” value amounted to 0.57 % Dose. Besides, in data set [1], the “% Dose in Muscle” value is 0.76 % Dose and the “% Dose in Skeleton” value was found to be 60 % Dose.
